# From US11384062B2 (CombiPhos Catalysts, Inc., priority 2017, dated 2022)
# Experiment: in vitro
# Details: rat, microsomes
# Description: Buffer solutions were prepared as follows: • a. Buffer A: 0.1 M monobasic potassium phosphate buffer containing 1.0 mM EDTA. • b. Buffer B: 0.1 M dibasic potassium phosphate buffer containing 1.0 mM EDTA. • c. Buffer C: 0.1 M potassium phosphate buffer containing 1.0 mM EDTA was adjusted to pH 7.4 by titrating 700 mL of Buffer B with Buffer A while monitoring with a pH meter. • 2. An NADPH stock solution (6 mM) was prepared by dissolving NADPH into Buffer C. • 3. Spiking solutions were prepared for the reference compound (ketanserin) and the test compounds as follows: • a. A 500 μM spiking solution of the reference compound (ketanserin) was generated by adding 10 μL of a 10 mM stock solution of ketanserin in DMSO into 190 μL acetonitrile. A 1.5 μM spiking solution in microsomes (0.75 mg/mL) was generated by adding 1.5 μL of the 500 μM spiking solution and 18.75 μL of 20 mg/mL rat liver microsomes into 479.75 μL of Buffer C while cooling with ice. • b. […] A 0.75 μM spiking solution in microsomes (0.75 mg/mL) was generated by adding 1.5 μL of the 250 μM spiking solution and 18.75 μL of 20 mg/mL rat liver microsomes into 479.75 μL of Buffer C while cooling with ice. • 4. 30 μL of 1.5 μM spiking solution containing 0.75 mg/mL microsomes solution was dispensed into assay plates designated for different time points (0 min, 5 min, 15 min, 30 min, and 45 min; or 0 min, 15 min, 30 min, 45 min, and 60 min as shown in Tables 1-5 below) while cooling with ice. • 5. For the 0 min time point assay plate, 135 μL of ACN containing IS followed immediately by 15 μL of the 6 mM NADPH stock solution were added to the wells of the 0 min assay plate. • 6. All assay plates other than the 0 min assay plate were pre-incubated at 37° C. for 5 min, and then 15 μL of the 6 mM NADPH stock solution was added to the wells of the assay plates to start the reaction and timing. At the appropriate time (5 min, 15 min, 30 min, 45 min, or 60 min), 135 μL of ACN containing IS was added to the wells of the corresponding assay plates, respectively, to stop the reaction. • 7. After quenching, the plates were shaken in a vibrator (IKA, MTS 2/4) for 10 min (600 rpm/min) and then centrifuged at 5594 g for 15 min (Thermo Multifuge×3R). • 8. After centrifugation, 50 μL of the supernatant from each well was transferred into a 96-well sample plate containing 50 μL of ultrapure water (Millipore, ZMQS50F01) for LC/MS analysis.
structure (smiles),measurement,setting,value
"[2H]C1([2H])NC([2H])([2H])C([2H])(c2ccc(-n3cc4cccc(C(N)=O)c4n3)cc2)C([2H])([2H])C1([2H])[2H] (racemic) [Example 3, 2-(4-(piperidin-3-yl-2,2,3,4,4,5,5,6,6-d9)phenyl)-2H-indazole-7-carboxamide]",Percent Remaining (%) 0 min,"0 h, 0.5 µM, pH 7.4",100.00%
same,Percent Remaining (%) 15 min,"0.25 h, 0.5 µM, pH 7.4",92.77%
same,Percent Remaining (%) 30 min,"0.5 h, 0.5 µM, pH 7.4",82.19%
same,Percent Remaining (%) 45 min,"0.75 h, 0.5 µM, pH 7.4",74.60%
same,Percent Remaining (%) 60 min,"1 h, 0.5 µM, pH 7.4",69.31%
same,CLint scaled at 0.5 µM,"pH 7.4, Clint",22.7 mL/min/kg
same,half-life at 0.5 µM,"pH 7.4, T1/2",1.82 h
